Measured values from US9302999B2, “Substituted triazoles as herbicides” (E. I. DU PONT DE NEMOURS AND COMPANY, priority 2012, dated 2016).

Experiments:
Format in all cases: in vivo
[1] = tested on: wheat, winter (winter wheat, Triticum aestivum); assay: Test D pre-/postemergence: wheat, winter
In short: (§1)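 Scores run from 0 (no effect) to 100 (complete control), assigned by visual comparison with controls after 14 to 21 days in a controlled environment. Both preemergence application to silt loam and postemergence application to 1- to 4-leaf plants were tested.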

rice (Oryza sativa) = assay: Test C flooded paddy test: rice; settings: scale 0 to 100 (0 no effect, 100 complete control)
In short: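 Rating: visual, 0–100 (100 = complete control), versus untreated controls after 13 to 15 greenhouse days. Treatment went into paddy water held at 3 cm over the soil, on plants grown to two leaves.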

[2] = tested on: bromegrass, downy (downy bromegrass, Bromus tectorum); assay: Test D pre-/postemergence: bromegrass, downy
In short: as §1

kochia (Kochia scoparia) [3] = assay: Test D pre-/postemergence: kochia
Excerpt: Seeds of plant species selected from bluegrass (annual bluegrass, Poa annua), blackgrass (Alopecurus myosuroides), canarygrass (Phalaris minor), chickweed (common chickweed, Stellaria media), galium (catchweed bedstraw, Galium aparine), bromegrass, downy (downy bromegrass, Bromus tectorum), field poppy (Papaver rhoeas), field violet (Viola arvensis), foxtail, green (green foxtail, Setaria viridis), deadnettle (henbit deadnettle, Lamium amplexicaule), ryegrass, Italian (Italian ryegrass, Lolium multiflorum), kochia (Kochia scoparia), lambsquarters (Chenopodium album), oilseed rape (Brassica napus), pigweed (Amaranthus retroflexus), Russian thistle (Salsola iberica), chamomile (scentless chamomile, Matricaria inodora), speedwell (bird's-eye speedwell, Veronica persica), barley, spring (spring barley, Hordeum vulgare), wheat, spring (spring wheat, Triticum aestivum), buckwheat, wild (wild buckwheat, Polygonum convolvulus), mustard, wild (wild mustard, Sinapis arvensis), oat, wild (wild oat, Avena fatua), radish, wild (wild radish, Raphanus raphanistrum), windgrass (Apera spica-venti), barley, winter (winter barley, Hordeum vulgare), and wheat, winter (winter wheat, Triticum aestivum) were planted into a silt loam soil and treated preemergence with test chemicals formulated in a non-phytotoxic solvent mixture which included a surfactant. At the same time, these same crop and weed species were planted in pots containing the planting medium comprising spaghnum peat moss, vermiculite, wetting agent and starter nutrients and treated with postemergence applications of the test chemicals formulated in the same manner. Plants ranged in height from 2 to 18 cm (1- to 4-leaf stage).
Treated plants and controls were maintained in a controlled growth environment for 14 to 21 days after which time all species were compared to controls and visually evaluated. Plant response ratings, summarized in Table D, are based on a scale of 0 to 100 where 0 is no effect and 100 is complete control. A dash (-) response means no test result.

[4] = tested on: poinsettia, wild (wild poinsettia, Euphorbia heterophylla); assay: Test F pre-/postemergence: poinsettia, wild
Excerpt: (§2) Seeds of plant species selected from corn (Zea mays), soybean (Glycine max), velvetleaf (Abutilon theophrasti), lambsquarters (Chenopodium album), poinsettia, wild (wild poinsettia, Euphorbia heterophylla), pigweed, palmer (palmer pigweed, Amaranthus palmeri), waterhemp (common waterhemp, Amaranthus rudis), surinam grass (Brachiaria decumbens), crabgrass, Brazil (Brazilian crabgrass, Digitaria horizontalis), panicum, fall (fall panicum Panicum dichotomiflorum), crabgrass, large (large crabgrass, Digitaria sanguinalis), foxtail, giant (giant foxtail, Setaria faberii), foxtail, green (green foxtail Setaria viridis), goosegrass (Eleusine indica), ragweed (common ragweed, Ambrosia elatior), barnyardgrass (Echinochloa crus-galli), sandbur (southern sandbur, Cenchrus echinatus), arrowleaf sida (Sida rhombifolia), ryegrass, Italian (Italian ryegrass, Lolium multiflorum), dayflower, VA (Virginia (VA) dayflower, Commelina virginica), field bindweed (Convolvulus arvensis), cocklebur (common cocklebur, Xanthium strumarium), morningglory (Ipomoea coccinea), nightshade (eastern black nightshade, Solanum ptycanthum), kochia (Kochia scoparia), nutsedge, yellow (yellow nutsedge, Cyperus esculentus), johnsongrass (Sorghum halepense), smartweed (ladysthumb smartweed, Polygonum persicaria), and beggarticks (hairy beggarticks, Bidens pilosa), were planted into a silt loam soil and treated preemergence with test chemicals formulated in a non-phytotoxic solvent mixture which included a surfactant. At the same time, plants selected from these crop and weed species and also pigweed (Amaranthus retroflexus), waterhemp_RES1 (ALS/Triazine resistant common waterhemp, Amaranthus rudis) and waterhemp_RES2 (ALS/HPPD resistant common waterhemp, Amaranthus rudis) were planted in pots containing a planting medium comprising spaghnum peat moss, vermiculite, wetting agent and starter nutrients treated with postemergence applications of some of the test chemicals formulated in the same manner. Plants ranged in height from 2 to 18 cm for postemergence treatments (1- to 4-leaf stage).
(§3) Treated plants and controls were maintained in a greenhouse for 14 to 21 days, after which time all species were compared to controls and visually evaluated. Plant response ratings, summarized in Table E, are based on a scale of 0 to 100 where 0 is no effect and 100 is complete control. A dash (-) response means no test result.

[5] = tested on: morningglory (Ipomoea coccinea); assay: Test F pre-/postemergence: morningglory; settings: Preemergence
Excerpt: as §2, §3

kochia (Kochia scoparia) [6] = assay: Test F pre-/postemergence: kochia; settings: Preemergence
Excerpt: as §2, §3

[7] = Postemergence, 31 g ai/ha, scale 0 to 100 (0 no effect, 100 complete control)
[8] = Postemergence, 62 g ai/ha, scale 0 to 100 (0 no effect, 100 complete control)
[9] = Postemergence, 125 g ai/ha, scale 0 to 100, 0 no effect, 100 complete control
[10] = Postemergence, 250 g ai/ha, scale 0 to 100 (0 no effect, 100 complete control)
[11] = Postemergence, 16 g ai/ha, scale 0 to 100
[12] = Flood (flooded paddy test), 125 g ai/ha, visual rating after 13 to 15 days
[13] = Flood (flooded paddy test), 250 g ai/ha, visual rating after 13 to 15 days
[14] = Preemergence, 31 g ai/ha, scale 0 to 100, 0 no effect, 100 complete control
[15] = Preemergence, 62 g ai/ha, scale 0 to 100
[16] = Preemergence, 125 g ai/ha, scale 0 to 100
[17] = Preemergence, 250 g ai/ha, scale 0 to 100
[18] = Preemergence, 16 g ai/ha, scale 0 to 100, 0 no effect, 100 complete control
[19] = 16 g ai/ha, scale 0 to 100, 0 no effect, 100 complete control
[20] = 31 g ai/ha, scale 0 to 100, 0 no effect, 100 complete control

Cc1nn(-c2ccc(C(F)(F)F)cn2)nc1Oc1ccnc(C(F)(F)F)c1 [Compound 23]
Plant response rating: Wheat, Winter [1, 7]: 5
Plant response rating: Wheat, Winter [1, 8]: 10
Plant response rating: Wheat, Winter [1, 9]: 15
Plant response rating: Wheat, Winter [1, 10]: 15
Plant response rating, Wheat, Winter [1, 11]: 0
Plant response rating, Rice (rice (Oryza sativa); Flood (flooded paddy test), 62 g ai/ha, visual rating after 13 to 15 days): 0
Plant response rating, Rice (rice (Oryza sativa); [12]): 0
Plant response rating, Rice (rice (Oryza sativa); [13]): 30
Plant response rating, Rice (rice (Oryza sativa); Flood, 31 g ai/ha): 0
Plant response rating: Bromegrass, Downy [2, 7]: 10
Plant response rating: Bromegrass, Downy [2, 8]: 15
Plant response rating: Bromegrass, Downy [2, 9]: 20
Plant response rating: Bromegrass, Downy [2, 10]: 25
Plant response rating, Bromegrass, Downy [2, 11]: 0
Plant response rating: Kochia (kochia (Kochia scoparia) [3]; [7]): 80
Plant response rating: Kochia (kochia (Kochia scoparia) [3]; [8]): 85
Plant response rating: Kochia (kochia (Kochia scoparia) [3]; [9]): 90
Plant response rating: Kochia (kochia (Kochia scoparia) [3]; [10]): 95
Plant response rating, Kochia (kochia (Kochia scoparia) [3]; [11]): 20

Cc1nn(-c2ccc(C(F)(F)F)cn2)nc1Cc1cccc(C(F)(F)F)c1 [Compound 106]
Plant response rating: Wheat, Winter [1, 7]: 5
Plant response rating: Wheat, Winter [1, 8]: 5
Plant response rating: Wheat, Winter [1, 9]: 5
Plant response rating: Wheat, Winter [1, 10]: 5
Plant response rating, Wheat, Winter [1, 11]: 5
Plant response rating, Wheat, Winter [1, 14]: 0
Plant response rating, Wheat, Winter [1, 15]: 0
Plant response rating, Wheat, Winter [1, 16]: 0
Plant response rating, Wheat, Winter [1, 17]: 0
Plant response rating, Rice (rice (Oryza sativa); [12]): 25
Plant response rating, Rice (rice (Oryza sativa); [13]): 30
Plant response rating, Rice (rice (Oryza sativa); Flood, 31 g ai/ha): 0
Plant response rating, Rice (rice (Oryza sativa); Flood, 62 g ai/ha): 0
Plant response rating: Bromegrass, Downy [2, 7]: 0
Plant response rating: Bromegrass, Downy [2, 8]: 10
Plant response rating: Bromegrass, Downy [2, 9]: 15
Plant response rating: Bromegrass, Downy [2, 10]: 15
Plant response rating, Bromegrass, Downy [2, 11]: 0
Plant response rating, Bromegrass, Downy [2, 14]: 0
Plant response rating, Bromegrass, Downy [2, 15]: 0
Plant response rating, Bromegrass, Downy [2, 16]: 0
Plant response rating, Bromegrass, Downy [2, 17]: 0
Plant response rating: Kochia (kochia (Kochia scoparia) [3]; [7]): 60
Plant response rating: Kochia (kochia (Kochia scoparia) [3]; [8]): 70
Plant response rating: Kochia (kochia (Kochia scoparia) [3]; [9]): 95
Plant response rating: Kochia (kochia (Kochia scoparia) [3]; [10]): 100
Plant response rating, Kochia (kochia (Kochia scoparia) [3]; [11]): 60
Plant response rating, Kochia (kochia (Kochia scoparia) [3]; [14]): 0
Plant response rating, Kochia (kochia (Kochia scoparia) [3]; [15]): 0
Plant response rating, Kochia (kochia (Kochia scoparia) [3]; [16]): 30
Plant response rating, Kochia (kochia (Kochia scoparia) [3]; [17]): 30

Cc1nn(-c2ccc(C(F)(F)F)cc2)nc1Oc1ccnc(C(F)(F)F)c1 [Compound 120]
Plant response rating: Wheat, Winter [1, 7]: 5
Plant response rating: Wheat, Winter [1, 8]: 10
Plant response rating: Wheat, Winter [1, 9]: 15
Plant response rating: Wheat, Winter [1, 10]: 20
Plant response rating, Wheat, Winter [1, 11]: 5
Plant response rating, Wheat, Winter [1, 18]: 0
Plant response rating, Wheat, Winter [1, 14]: 0
Plant response rating, Wheat, Winter [1, 15]: 5
Plant response rating, Wheat, Winter [1, 16]: 5
Plant response rating, Wheat, Winter [1, 17]: 10
Plant response rating, Rice (rice (Oryza sativa); [12]): 70
Plant response rating, Rice (rice (Oryza sativa); [13]): 80
Plant response rating, Rice (rice (Oryza sativa); Flood, 62 g ai/ha): 60
Plant response rating: Bromegrass, Downy [2, 7]: 10
Plant response rating: Bromegrass, Downy [2, 8]: 10
Plant response rating: Bromegrass, Downy [2, 9]: 20
Plant response rating: Bromegrass, Downy [2, 10]: 25
Plant response rating, Bromegrass, Downy [2, 11]: 5
Plant response rating, Bromegrass, Downy [2, 18]: 0
Plant response rating, Bromegrass, Downy [2, 14]: 0
Plant response rating, Bromegrass, Downy [2, 15]: 5
Plant response rating, Bromegrass, Downy [2, 16]: 25
Plant response rating, Bromegrass, Downy [2, 17]: 60
Plant response rating: Kochia (kochia (Kochia scoparia) [3]; [7]): 98
Plant response rating: Kochia (kochia (Kochia scoparia) [3]; [8]): 100
Plant response rating: Kochia (kochia (Kochia scoparia) [3]; [9]): 100
Plant response rating: Kochia (kochia (Kochia scoparia) [3]; [10]): 100
Plant response rating, Kochia (kochia (Kochia scoparia) [3]; [11]): 98
Plant response rating, Kochia (kochia (Kochia scoparia) [3]; [18]): 0
Plant response rating, Kochia (kochia (Kochia scoparia) [3]; [14]): 10
Plant response rating, Kochia (kochia (Kochia scoparia) [3]; [15]): 30
Plant response rating, Kochia (kochia (Kochia scoparia) [3]; [16]): 95
Plant response rating, Kochia (kochia (Kochia scoparia) [3]; [17]): 100

Cc1nn(-c2ccnc(Cl)c2)nc1Cc1ccnc(C(F)(F)F)c1 [Compound 141]
Plant response rating, Poinsettia, Wild ([4]; Postemergence, 8 g ai/ha, scale 0 to 100): 60
Plant response rating, Poinsettia, Wild [4, 11]: 80
Plant response rating, Poinsettia, Wild ([4]; Postemergence, 31 g ai/ha, scale 0 to 100): 85
Plant response rating, Poinsettia, Wild ([4]; Postemergence, 62 g ai/ha, scale 0 to 100): 95
Plant response rating, Poinsettia, Wild ([4]; Postemergence, 125 g ai/ha, scale 0 to 100): 98

CCc1nn(-c2ccc(F)c(F)c2)nc1Oc1ccnc(C(F)(F)F)c1 [Compound 171]
Plant response rating, Poinsettia, Wild [4, 18]: 0
Plant response rating, Poinsettia, Wild [4, 14]: 0
Plant response rating, Poinsettia, Wild [4, 16]: 10
Plant response rating, Poinsettia, Wild [4, 17]: 10
Plant response rating, Morningglory [5, 19]: 0
Plant response rating, Morningglory [5, 20]: 0
Plant response rating, Morningglory ([5]; 125 g ai/ha, scale 0 to 100): 35
Plant response rating, Morningglory ([5]; 250 g ai/ha, scale 0 to 100): 65
Plant response rating, Kochia (kochia (Kochia scoparia) [6]; [19]): 0
Plant response rating, Kochia (kochia (Kochia scoparia) [6]; [20]): 0
Plant response rating, Kochia (kochia (Kochia scoparia) [6]; 62 g ai/ha, scale 0 to 100): 5
Plant response rating, Kochia (kochia (Kochia scoparia) [6]; 125 g ai/ha, scale 0 to 100): 15
Plant response rating, Kochia (kochia (Kochia scoparia) [6]; 250 g ai/ha, scale 0 to 100): 98
